What was measured:
HCV = settings: without ribavirin; cited from earlier work
genotype 1b HCV [1] = experiment: Antiviral effect of 22β-methoxyolean-12-ene-3β,24(4β)-diol and PEG-IFN in refractory chronic hepatitis C (NR case); blood HCV load by TaqMan PCR; type: in vivo, human; settings: for Ratio of negativity achieved in blood HCV after 24 weeks from administrations: NR-case patients N=6; for Ratio of negativity achieved in blood HCV after 24 weeks from administrations (age) / Ratio of negativity achieved in blood HCV after 24 weeks from administrations (sex): NR case
Procedure: Subjects were the following patients (12 in total; 7 men, 5 women) who had been infected with genotype 1b HCV and had chronic hepatitis C and who were particularly considered to be highly refractory.
To these subject patients (NR case), a fine granule containing 25 mg or 400 mg of 22β-methoxyolean-12-ene-3β,24(4β)-diol was orally administered twice a day and 180 μg of PEG-IFN-α-2a (Pegasys: Roche Holding AG and Chugai Pharmaceutical Co., Ltd.) was subcutaneously administered per week. These administrations were continued for 24 weeks (hereinafter, the patients were referred to as a “50 mg/day administration group” or an “800 mg/day administration group”). The transitions of the blood HCV load and safety (clinical test value abnormality: blood hemoglobin value) before the administrations and up to 24 weeks were examined. The blood HCV load was measured using the TaqMan® PCR method, and the baseline of negativity was below 1.2 Log IU/mL.
The backgrounds of all the patients in the two administration groups are as follows. As for the sex, there were 7 men (58.3%) and 5 women […]. As for the age, the average age was 58.3, the youngest was 43 years old, and the oldest was 69 years old. With the baseline of 60 years old, there were 6 people who were under 60 years old (50.0%) and 6 people who were 60 years old or above (50.0%). The average blood HCV load of the patients before the administrations was 6.66 Log IU/mL with the minimum load of 5.30 Log IU/mL and the maximum load of 7.40 Log IU/mL. These exceeded the baseline, 5.00 Log IU/mL, of the high viral load, and all the patients were infected with genotype 1b.

genotype 1b HCV [2] = experiment: Antiviral effect of 22β-methoxyolean-12-ene-3β,24(4β)-diol and PEG-IFN in refractory chronic hepatitis C (LVR case); blood HCV load by TaqMan PCR; type: in vivo, human; settings: for Ratio of negativity achieved in blood HCV after 12 weeks from administrations (age) / Ratio of negativity achieved in blood HCV after 12 weeks from administrations (sex): LVR case
Procedure: Subjects were 21 patients (9 men, 12 women) infected with genotype 1b HCV and having chronic hepatitis C. […] To these subject patients in a refractory chronic hepatitis C case, a fine granule containing 25 mg or 400 mg of […] was orally administered twice a day and 180 μg of PEG-IFN-α-2a (Pegasys: manufactured by Roche Holding AG and Chugai Pharmaceutical Co., Ltd.) was subcutaneously administered per week. […] The blood HCV load was measured using the TaqMan® PCR method, and the baseline of negativity was below 1.2 Log IU/mL.
The backgrounds of all the patients in the two administration groups are as follows. […] These exceeded the baseline, 5.00 Log IU/mL, of the high viral load, and all the patients were infected with genotype 1b.

[3] = 60 years old or above, 50 mg/day with PEG-IFN-α-2a
[4] = 60 years old or above, 800 mg/day with PEG-IFN-α-2a
[5] = 60 years old or above, total of both doses with PEG-IFN-α-2a
[6] = Men, 50 mg/day with PEG-IFN-α-2a
[7] = Men, 800 mg/day with PEG-IFN-α-2a
[8] = Men, total of both doses with PEG-IFN-α-2a
[9] = Women, 50 mg/day with PEG-IFN-α-2a
[10] = Women, 800 mg/day with PEG-IFN-α-2a
[11] = Women, total of both doses with PEG-IFN-α-2a
[12] = under 60 years old, 50 mg/day with PEG-IFN-α-2a
[13] = under 60 years old, 800 mg/day with PEG-IFN-α-2a
[14] = under 60 years old, total of both doses with PEG-IFN-α-2a

## CO[C@@H]1CC(C)(C)C[C@H]2C3=CC[C@@H]4[C@@]5(C)CC[C@H](O)[C@](C)(CO)[C@@H]5CC[C@@]4(C)[C@]3(C)CC[C@@]12C [22β-methoxyolean-12-ene-3β,24(4β)-diol]
HCV
  Anti-HCV activity in combination with an IFN: synergistic anti-HCV activity
Genotype 1b HCV [1]; 50 mg/day (25 mg orally twice a day) combined with PEG-IFN-α-2a 180 μg/week s.c., negativity below 1.2 Log IU/mL
  Ratio of negativity achieved in blood HCV after 24 weeks from administrations: 50.0% (3/6)
Genotype 1b HCV [1]; 800 mg/day (400 mg orally twice a day) combined with PEG-IFN-α-2a 180 μg/week s.c.
  Ratio of negativity achieved in blood HCV after 24 weeks from administrations: 50.0% (3/6)
Genotype 1b HCV [1]; [3]
  Ratio of negativity achieved in blood HCV after 24 weeks from administrations (age): 50.0% (1/2)
Genotype 1b HCV [1]; [4]
  Ratio of negativity achieved in blood HCV after 24 weeks from administrations (age): 50.0% (2/4)
Genotype 1b HCV [1]; [5]
  Ratio of negativity achieved in blood HCV after 24 weeks from administrations (age): 50.0% (3/6)
Genotype 1b HCV [1]; [6]
  Ratio of negativity achieved in blood HCV after 24 weeks from administrations (sex): 50.0% (2/4)
Genotype 1b HCV [1]; [7]
  Ratio of negativity achieved in blood HCV after 24 weeks from administrations (sex): 33.3% (1/3)
Genotype 1b HCV [1]; [8]
  Ratio of negativity achieved in blood HCV after 24 weeks from administrations (sex): 42.9% (3/7)
Genotype 1b HCV [1]; [9]
  Ratio of negativity achieved in blood HCV after 24 weeks from administrations (sex): 50.0% (1/2)
Genotype 1b HCV [1]; [10]
  Ratio of negativity achieved in blood HCV after 24 weeks from administrations (sex): 66.7% (2/3)
Genotype 1b HCV [1]; [11]
  Ratio of negativity achieved in blood HCV after 24 weeks from administrations (sex): 60.0% (3/5)
Genotype 1b HCV [1]; [12]
  Ratio of negativity achieved in blood HCV after 24 weeks from administrations (age): 50.0% (2/4)
Genotype 1b HCV [1]; [13]
  Ratio of negativity achieved in blood HCV after 24 weeks from administrations (age): 50.0% (1/2)
Genotype 1b HCV [1]; [14]
  Ratio of negativity achieved in blood HCV after 24 weeks from administrations (age): 50.0% (3/6)
Genotype 1b HCV [2]; 50 mg/day (25 mg orally twice a day) combined with PEG-IFN-α-2a 180 μg/week s.c., LVR-case patients N=11, negativity below 1.2 Log IU/mL
  Ratio of negativity achieved in blood HCV after 12 weeks from administrations: 63.6% (7/11)
Genotype 1b HCV [2]; 800 mg/day (400 mg orally twice a day) combined with PEG-IFN-α-2a 180 μg/week s.c., LVR-case patients N=10
  Ratio of negativity achieved in blood HCV after 12 weeks from administrations: 50.0% (5/10)
Genotype 1b HCV [2]; [3]
  Ratio of negativity achieved in blood HCV after 12 weeks from administrations (age): 75.0% (6/8)
Genotype 1b HCV [2]; [4]
  Ratio of negativity achieved in blood HCV after 12 weeks from administrations (age): 25.0% (1/4)
Genotype 1b HCV [2]; [5]
  Ratio of negativity achieved in blood HCV after 12 weeks from administrations (age): 58.3% (7/12)
Genotype 1b HCV [2]; [6]
  Ratio of negativity achieved in blood HCV after 12 weeks from administrations (sex): 60.0% (3/5)
Genotype 1b HCV [2]; [7]
  Ratio of negativity achieved in blood HCV after 12 weeks from administrations (sex): 50.0% (2/4)
Genotype 1b HCV [2]; [8]
  Ratio of negativity achieved in blood HCV after 12 weeks from administrations (sex): 55.6% (5/9)
Genotype 1b HCV [2]; [9]
  Ratio of negativity achieved in blood HCV after 12 weeks from administrations (sex): 66.7% (4/6)
Genotype 1b HCV [2]; [10]
  Ratio of negativity achieved in blood HCV after 12 weeks from administrations (sex): 50.0% (3/6)
Genotype 1b HCV [2]; [11]
  Ratio of negativity achieved in blood HCV after 12 weeks from administrations (sex): 58.3% (7/12)
Genotype 1b HCV [2]; patients negative by 12 weeks whose administrations (25 or 400 mg twice a day with PEG-IFN-α-2a 180 μg/week) were continued up to 48 weeks
  Blood HCV load continued to be negative for 48 weeks of the administration period: two out of three patients
Genotype 1b HCV [2]; the patients negative through 48 weeks of administration with PEG-IFN-α-2a, complete recovery was achieved
  Relapse after the non-treatment period of subsequent 24 weeks: no relapse occurred
Genotype 1b HCV [2]; [12]
  Ratio of negativity achieved in blood HCV after 12 weeks from administrations (age): 33.3% (1/3)
Genotype 1b HCV [2]; [13]
  Ratio of negativity achieved in blood HCV after 12 weeks from administrations (age): 66.7% (4/6)
Genotype 1b HCV [2]; [14]
  Ratio of negativity achieved in blood HCV after 12 weeks from administrations (age): 55.6% (5/9)
